# Laboratory results published in patent publication US20240277715A1, “COMBINATION THERAPIES COMPRISING A METTL3 INHIBITOR AND A FURTHER ANTICANCER AGENT” (Storm Therapeutics Limited, priority 2021, published 2024).
# Legend:
# [1] = tested on: Kasumi1 AML cell line; assay: AML cell viability, CellTiter-Glo combination matrix, Kasumi1; assay type: cell-based
# Protocol: (§1) The sensitivity of AML cell lines to combinations of METTL3 inhibitor and standards of care was determined as described. Dose response curves of venetoclax were determined either alone or in the presence of different concentrations of METTL3 inhibitor that are known to be active in cells.
# (§2) Synergistic interactions occur when the IC50 value decreases in the presence of METTL3 inhibitor. […] Antagonistic interactions occur when the IC50 value increases in the presence of METTL3 inhibitor.
# (§3) 24 h before cell treatment, homogenize, stain with Trypan blue and count viable cells using CellOMeter Auto T4. Dilute cells in media at 400 000 cells/ml to ensure an exponential growth the day after.
# (§4) On treatment day, homogenize, stain with Trypan blue and count viable cells using CellOMeter Auto T4. Dilute to the proper cell seeding density according to Table 6 in cell media.
# (§5) • Dispense drug (see Table 7) and METTL3 inhibitor in semi-log dose-response matrix and DMSO in 384-well plates using D300e Nanodispenser (Tecan). • 6× compound solution preparation: add 40 μL of cell medium in compound-containing plates and homogenize using the ViaFlo device (Integra) • Dispense 30 μl of cell suspension per well in three replicate 384-well white Ultra-Low-Attachment plates (Sbio) using ViaFlow device (Integra) • Transfer 6 μL of the 6× compound solution in each 30 μL cell suspension-containing plate. • Incubate at 37° C. 5% CO2 for 3 to 5 days.
# (§6) • Add 35 μL CellTiter-Glo (Promega) in wells (vol/vol) using ViaFlo device (Integra). • Incubate at RT 10 min in the dark, with agitation the first minute, and read luminescence on the Ensight device (Perkin Elmer).
# (§7) Raw data were converted to % viability by normalization to DMSO controls. IC50 determination was performed using GraphPad Prism and fitting curves to the standard nonlinear regression four parameter equation (Y=Bottom+(Top-Bottom)/(1+(IC50/X)^HillSlope)) least squares method, and synergy was assessed by comparison of IC50 values of the standard of care in the presence or absence of different concentrations of METTL3 inhibitor (see FIGS. 12 to 19).
# [2] = tested on: A20 mouse B cell lymphoma; assay: Subcutaneous A20 lymphoma syngeneic model, anti-tumour efficacy; assay type: in vivo
# Excerpt: The in vivo effect of METTL3 inhibition in combination with anti-PD1 immune checkpoint inhibitor was investigated using syngeneic mouse tumour models in immune-competent hosts. Mouse tumour models can be grown in appropriate host strains and are widely used to investigate the effects of therapeutic agents on the immune system and cancer growth. There are a limited range of mouse syngeneic tumour models available, far fewer than human cell lines, and they are widely used in the art to support potential clinical utility of immune stimulatory approaches across multiple indications. We exemplify the potential role of STM3480 and combinations with immune checkpoint inhibitors such as anti-PD-1 antibodies in multiple tumour models including A20 (murine B cell lymphoma), EMT-6 (murine breast cancer) and CT-26 (murine colorectal cancer).
# The objective of this study is to assess the anti-tumour efficacy of STM3480 in combination with anti-PD1 in subcutaneous A20 mouse B cell lymphoma cancer model in female BALB/c mice.
# A20 (#ATCC TIB-208) mouse B cell lymphoma cells were cultured in (RPMI-1640+10% non H.I. FBS+0.05 mM 2-mercaptoethanol) media. 5×10^5 viable cells in 0.1 ml PBS were injected subcutaneously into the left flank of 7-9 week old female BALB/cN (BALB/cAnNCrl) Crl mice utilising 27 gauge needles following skin disinfection with 70% ethanol.
# Tumours were measured three times a week and tumour volumes estimated using the formula 0.5 (L×W^2) by measuring the tumour in two dimensions using electronic callipers for the duration of the study.
# Mice were randomly allocated to four treatment groups and treatment commenced when tumours reached a mean volume of ˜50-100 mm^3. Mice were allocated to their treatment groups with uniform mean tumour volume between groups. Treatment was continued for up to 3 weeks, or until individual mice were sacrificed for humane reasons according to Home Office license regulations (e.g. body weight loss >20%; tumour volume >1500 mm^3; tumour ulceration; loss of clinical condition). The final dose was given on day 32 after implantation.
# Vehicle for STM3480—Hydroxypropyl-β-Cyclodextrin (HPBCD)/Sodium Acetate buffer pH:4.6 50 mM (10%/90%; w/v): Weigh 1.025 g of sodium acetate anhydrous. Add 700 μl of glacial acetic acid then make up to 500.0 ml with ultrapurified water. pH:4.6 50 mM.
# For 1 ml volume 5 mg/ml STM3480 dosing solution: Weigh 5.0 mg of STM00003480 compound (Batch: EV-WZM001-421-002). Add 1.0 mL of HPBCD/Acetate buffer pH:4.6 50 mM (10%/90%; w/v). Magnetic stirring at high speed at ambient temperature; Overnight stirring may be required if there are any signs of precipitation. The formulation is a slight yellow solution with very few particles in suspension. Homogenize with a vortex before administration. […]
# [3] = tested on: SKOV3 human ovarian cancer cells; assay: Tumour killing assay (TKA), SKOV3 spheroid / PBMC co-culture; assay type: cell-based; conditions: STM3480 0.05 micromolar, FIG. 1 and 2
# Protocol: This experiment evaluates the effects of human donor Peripheral Blood Mononuclear Cells (PBMCs) to attack and kill fluorescently-labelled tumour cells in a co-culture assay. Briefly, test agents are incubated at different concentrations with SKOV3 human ovarian cancer cells in the presence or absence of human donor PBMCs and tumour growth is monitored continuously by real time imaging of the NucLight Red-labelled SKOV3 cells for several days.
# NucLight Red (Incucyte, Essen Biosciences)-transduced SK-OV-3 (SK-OV-3-NLR) cells were transferred into Ultra-low attachment 96 well plates with spontaneous spheroid formation occurring over 48 hours. Peripheral blood mononuclear cells (PBMC) were isolated from healthy single donor buffy coats by density separation. Prior to co-culture of SK-OV-3-NLR spheroids with PBMC, SK-OV-3-NLR spheroids were treated with 10 ng/ml of interferon gamma (IFNγ). All treatments, including STM3480 and Pembrolizumab, were added at the point of co-culture in a final total volume of 200 μl/per well. Assay plates were transferred into an IncuCyte S3 and images were collected every 2 hours for 7 days. Following experimental completion, an analysis definition was applied to quantify the Total NLR Integrated Intensity present on a per well basis. Changes in spheroid size were quantified by plotting Total NLR Integrated Intensity against time.
# [4] = tested on: MOLM13 AML cell line; assay: AML cell viability, CellTiter-Glo combination matrix, MOLM13; assay type: cell-based; conditions: MOLM13 AML cell line
# Protocol: as §1, §2, §3, §4, §5, §6, §7
# [5] = tested on: FLT3-mutant MOLM-14 AML cell line; assay: AML cell viability, CellTiter-Glo combination matrix, MOLM-14; assay type: cell-based
# Protocol: as §3, §4, §5, §6
# Raw data were converted to % viability by normalization to DMSO controls.
smiles,measurement,setting,value
"O=C(NCc1ccc2cc(CNCC3CCC3)[nH]c2c1)c1cc(=O)n2ccccc2n1 [STM3480, N-[(2-{[(cyclobutylmethyl)amino]methyl}-1H-indol-6-yl)methyl]-4-oxo-4H-pyrido[1,2-a]pyrimidine-2-carboxamide]",cell viability with increasing concentrations of METTL3 inhibitor,"[1]; Kasumi1, combination with daunorubicin",dose-dependent decrease
same,interaction with 5′-azacitidine,[1]; Kasumi1 AML cell line,additive
same,interaction with cytarabine,[1]; Kasumi1 AML cell line,additive
same,interaction with daunorubicin,[1]; Kasumi1 AML cell line,additive
same,interaction with venetoclax,[1]; Kasumi1 AML cell line,synergistic
same,tumour growth compared to the vehicle control (mean tumour volume),"[2]; A20, FIG. 3",reduction of tumour growth
same,Mean tumour volume d24,"[2]; A20, female BALB/c mice, STM3480 50 mg/kg p.o., anti PD1 10 mg/kg i.p. BIW, up to 3 weeks, 10 per group",425 mm3
same,"progressive tumour growth, animals","[2]; A20, individual tumours (FIG. 4)",8/10
same,No. mice with complete regressions,"[2]; A20, STM3480 50 mg/kg p.o., anti PD1 10 mg/kg i.p. BIW, 10 per group",1
same,tumour viability (normalized NucLight Red [NLR] fluorescence) against time,[3],greater anti-tumour effect compared to vehicle
same,interaction with venetoclax,[4],synergistic
same,interaction with quizartinib,[5]; FLT3-mutant MOLM-14 AML cell line,additive
same,cell viability with increasing concentrations of METTL3 inhibitor,"[5]; MOLM-14, combination with quizartinib",decreasing viability
